Calls of active or inactive are those of the source.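 Rule for the calls: active = inhibition at or above 50% when tested at 10 µM; inactive = inhibition below 50% at 10 µM.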
Molecular target: Methionine--tRNA ligase, mitochondrial (Homo sapiens) (UniProt Q96GW9)
Assay: inhibitors of human mitochondrial methionyl-tRNA synthetase – biochemical, radioactivity, round 2, selectivity assay for T. brucei MetRS inhibitor project, late-stage follow-up (AID 1053200)
Settings: recombinant human mitochondrial MetRS, [3H]Met aminoacylation, stronger effect = higher value

Sequence of Methionine--tRNA ligase, mitochondrial (Homo sapiens) (Q96GW9 whole entry, looked up): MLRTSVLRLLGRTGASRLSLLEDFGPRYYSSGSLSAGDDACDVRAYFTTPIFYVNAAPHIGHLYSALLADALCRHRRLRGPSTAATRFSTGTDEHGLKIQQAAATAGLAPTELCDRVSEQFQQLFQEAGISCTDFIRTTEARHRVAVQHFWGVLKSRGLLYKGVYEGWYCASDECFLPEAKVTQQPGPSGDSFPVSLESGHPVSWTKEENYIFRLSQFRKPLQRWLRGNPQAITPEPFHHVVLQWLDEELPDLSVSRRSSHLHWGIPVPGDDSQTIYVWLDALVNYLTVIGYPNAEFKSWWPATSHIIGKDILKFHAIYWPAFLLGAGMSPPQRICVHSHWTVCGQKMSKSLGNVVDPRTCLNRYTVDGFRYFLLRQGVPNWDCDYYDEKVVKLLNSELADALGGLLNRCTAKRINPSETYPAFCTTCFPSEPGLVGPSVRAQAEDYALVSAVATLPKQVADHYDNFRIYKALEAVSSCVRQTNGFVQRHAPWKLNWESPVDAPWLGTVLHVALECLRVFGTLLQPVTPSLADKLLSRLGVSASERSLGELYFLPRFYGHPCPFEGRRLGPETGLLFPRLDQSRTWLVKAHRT

| SMILES | inhibition (at 10 µM) | inhibition (inhibition, at 1 µM) [%] |
| --- | --- | --- |
| CCN(CC)C(=O)C(=O)c1cn(CC(=O)Nc2cc(Cl)cc(C(F)(F)F)c2)c2ccccc12 | 17.4% (inactive) | -6.78 |
| CCN(CC)C(=O)C(=O)c1cn(CC(=O)Nc2cc(C)cc(C(F)(F)F)c2)c2ccccc12 | 20.9% (inactive) | -1.02 |
| CCN(CC)C(=O)C(=O)c1cn(CC(=O)Nc2cccc(C(F)(F)F)c2)c2cc(OC)ccc12 | -1.37% (inactive) | -8.82 |
| CCN(CC)C(=O)C(=O)c1cn(CC(=O)Nc2cc(Oc3ccccc3)cc(C(F)(F)F)c2)c2ccccc12 | 21.1% (inactive) | -2.76 |

Second part, the compound after the results:

| inhibition (at 10 µM) | inhibition (inhibition, at 1 µM) [%] | SMILES |
| --- | --- | --- |
| 9.77% (inactive) | -3.97 | CCN(CC)C(=O)C(=O)c1cn(CC(=O)Nc2cc(C(F)(F)F)cc(C(F)(F)F)c2)c2ccccc12 |
| 12.8% (inactive) | -17.3 | CCN(CC)C(=O)C(=O)c1cn(CC(=O)Nc2cc(Br)cc(C(F)(F)F)c2)c2ccccc12 |

— PubChem BioAssay AID1053200 (The Scripps Research Institute Molecular Screening Center, 2014)
